We go through nine substances from article PMC5352234 (International Journal of Nanomedicine, 2017).

For experiment [1], the target named is T1, PKA (Bos taurus, UniProt P00517). Conditions: cited from earlier work.
The target of experiment [2] is T1, PKA. The experiment in a line: AuNPs/Fc-peptide electrochemical. The following applies: thiolated IP20/MCH gold electrode; Fc-peptide 4 µM or AuNPs 2.4 nM.
Experiment [3] is described as follows: Aggregation of unmodified AuNPs by peptide. The format is physicochemical. The following applies: AuNPs 2.4 nM, IP20 5 µM, PKA (where present) 500 U/mL; UV-Vis, TEM.
The mark [4] stands for this setting: substrate/ATP, Fe^3+/H2O2, ref [20].
[5] abbreviates: substrate/ATP-S, AuNPs/MWNTs, ref [30].
Setting [6] is: substrate/ATP, Biotinylated antiphosphoserine antibody/SA-AuNPs-HRP, ref [19].
The mark [7] stands for this setting: substrate/ATP, Zr^4+-DNA-AuNPs network, ref [22].

Read-outs that look alike come from different tables or passages of the source.

Consider CGGALRRASLG, for which the Linear range at PKA [1] (substrate/ATP, Phos-tag-biotin/avidin-HRP, ref [23]) is reported as 500–25,000 mU/mL. On to Fc-LRRASLG, for which the Detection limit at PKA [1] (substrate/ATP, bis(Zn^2+-dipicolylamine), ref [21]) is 100 mU/mL. Take LRRASLGGGGC: on PKA [1] (setting [4]), the Detection limit is 100 mU/mL and the Linear range is 100–50,000 mU/mL. Take LRRASLG: the Detection limit at PKA [1] (substrate/biotin-ATP, SA-AuNPs, ref [27]) was 10,000 mU/mL.

For FcCH2CO-RTGRRNAIHD [Fc-peptide], the “DPV signal/peak, single component only (Fc-peptide alone or AuNPs alone)” value at PKA [2] was “no DPV peak was observed”. Consider RTGRRNAIHD, for which the “effect on AuNPs aggregation / color change” value in experiment [3] is recorded as “responsible for triggering the aggregation of AuNPs”.

CLRRASIG: on PKA [1] (setting [5]), the Detection limit is 90 mU/mL and the Linear range was 100–1,000 mU/mL. In the case of CALRRASLGW, at PKA [1] (setting [6]), the Detection limit is 1 mU/mL and the Linear range is on record as 1–10 mU/mL. Turning to CLRRASLG, on PKA [1] (setting [7]), the Detection limit was 30 mU/mL and the Linear range is recorded as 30–40,000 mU/mL.
